Laboratory results taken from paper PMC10709440, “High-throughput ligand profile characterization in novel cell lines expressing seven heterologous insect olfactory receptors for the detection of volatile plant biomarkers” (Scientific Reports, 2023).
“And” between values parts separate entries of the source, which are not always exact repeats. Equal entries are not always repeated. Where two headings read alike, the source gives them in different places.

Experiments:
Drosophila OR85b = target: T1, Drosophila OR85b (Drosophila melanogaster, UniProt Q9VHQ7); assay: Calcium ion fluorescence (GCaMP6) assay, OR85b stable HEK293 cell line; format: cell-based; conditions: for Average response / OR85b response (VUAA1-normalized) at 1 μM / OR85b response (VUAA1-normalized) at 10 μM / OR85b response (VUAA1-normalized) at 100 μM: OR85b cell line; for Average response: VUAA1-normalized response, mean of biological replicates; for OR85b response (VUAA1-normalized) at 1 μM: VOC concentration 1 μM; for OR85b response (VUAA1-normalized) at 10 μM: VOC concentration 10 μM; for OR85b response (VUAA1-normalized) at 100 μM: VOC concentration 100 μM
T1 construct: expressed in transfected cells
T1 sequence (Q9VHQ7 1-390): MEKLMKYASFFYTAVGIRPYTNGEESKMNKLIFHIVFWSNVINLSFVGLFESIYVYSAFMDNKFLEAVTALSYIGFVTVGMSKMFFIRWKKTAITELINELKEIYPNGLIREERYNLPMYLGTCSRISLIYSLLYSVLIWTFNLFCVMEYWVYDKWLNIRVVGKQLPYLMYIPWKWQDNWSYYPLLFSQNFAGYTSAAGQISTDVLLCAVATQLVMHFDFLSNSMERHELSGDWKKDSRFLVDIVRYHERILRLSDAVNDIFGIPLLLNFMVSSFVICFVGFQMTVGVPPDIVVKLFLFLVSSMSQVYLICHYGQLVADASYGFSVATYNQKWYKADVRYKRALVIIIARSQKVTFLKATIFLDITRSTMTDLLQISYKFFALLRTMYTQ
T1 sequence (Q9VNB5 1-486 partner): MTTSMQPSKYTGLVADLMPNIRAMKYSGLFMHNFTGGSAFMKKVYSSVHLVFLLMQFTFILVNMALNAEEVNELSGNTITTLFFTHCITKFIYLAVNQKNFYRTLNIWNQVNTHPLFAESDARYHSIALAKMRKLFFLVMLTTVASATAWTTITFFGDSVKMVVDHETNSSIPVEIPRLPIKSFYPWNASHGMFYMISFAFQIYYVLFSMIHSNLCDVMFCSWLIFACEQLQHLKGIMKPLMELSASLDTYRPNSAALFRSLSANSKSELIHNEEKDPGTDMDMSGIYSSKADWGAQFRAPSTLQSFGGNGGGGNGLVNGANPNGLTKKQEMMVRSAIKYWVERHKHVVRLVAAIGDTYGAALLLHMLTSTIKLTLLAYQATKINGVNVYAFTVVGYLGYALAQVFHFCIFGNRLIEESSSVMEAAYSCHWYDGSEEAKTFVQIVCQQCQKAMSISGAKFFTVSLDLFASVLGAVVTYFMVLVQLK
Procedure, shortened: (§1)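 HEK293 lines stably expressing each Drosophila OR with GCaMP6, doxycycline-induced (1 μg/mL) 48 or 72 h. Fluorescence recorded 5 s baseline then 30 s after VOC injection at pH 7.3; ΔF=(FMAX−F0)/F0, normalized to 50 µM VUAA1 response per line, triplicate wells averaged; concentration series 0.01–100 μM.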

Drosophila OR10a = target: T2, Drosophila OR10a (Drosophila melanogaster, UniProt Q9VYZ1); assay: Calcium ion fluorescence (GCaMP6) assay, OR10a stable HEK293 cell line; format: cell-based; conditions: for OR10a response (VUAA1-normalized) at 1 μM / OR10a response (VUAA1-normalized) at 10 μM / OR10a response (VUAA1-normalized) at 100 μM: OR10a cell line; for OR10a response (VUAA1-normalized) at 1 μM: VOC concentration 1 μM; for OR10a response (VUAA1-normalized) at 10 μM: VOC concentration 10 μM; for OR10a response (VUAA1-normalized) at 100 μM: VOC concentration 100 μM
T2 construct: expressed in transfected cells
T2 sequence (Q9VYZ1 1-406): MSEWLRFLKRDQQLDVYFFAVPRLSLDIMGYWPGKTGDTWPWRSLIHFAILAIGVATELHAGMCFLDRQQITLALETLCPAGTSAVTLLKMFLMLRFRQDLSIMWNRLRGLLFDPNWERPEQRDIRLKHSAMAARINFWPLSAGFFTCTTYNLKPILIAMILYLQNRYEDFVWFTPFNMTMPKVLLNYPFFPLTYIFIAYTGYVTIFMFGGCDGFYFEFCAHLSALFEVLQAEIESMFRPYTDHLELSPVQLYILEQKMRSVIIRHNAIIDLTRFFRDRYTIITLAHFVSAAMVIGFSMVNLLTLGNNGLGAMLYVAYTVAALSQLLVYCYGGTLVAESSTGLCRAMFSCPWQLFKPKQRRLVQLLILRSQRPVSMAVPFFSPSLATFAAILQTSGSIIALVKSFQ
T2 sequence (Q9VNB5 1-486 partner): T1 sequence (Q9VNB5 1-486 partner)
Procedure, shortened: as §1

[1] = HEK293, read-out: OR85b Average response (VUAA1-normalized)
[2] = HEK293, read-out: OR85b response (VUAA1-normalized response)
[3] = VOC concentration 0.15 (unit not given)
[4] = VOC concentration 0.3 (unit not given)
[5] = VOC concentration 0.6 (unit not given)
[6] = VOC concentration 1.25 (unit not given)
[7] = VOC concentration 2.5 (unit not given)
[8] = VOC concentration 5 (unit not given)
[9] = VOC concentration 10 (unit not given)
[10] = VOC concentration 20 (unit not given)
[11] = VOC concentration 40 (unit not given)
[12] = VOC concentration 60 (unit not given)
[13] = VOC concentration 80 (unit not given)
[14] = VOC concentration 100 (unit not given)
[15] = ligand concentration 1 (unit not given), threshold 0.05, below shown as 0
[16] = ligand concentration 10 (unit not given), threshold 0.05, below shown as 0
[17] = ligand concentration 100 (unit not given), threshold 0.05, below shown as 0

Compound: CCCCCC(C)=O [2-heptanone]
- EC50 (Drosophila OR85b; AVERAGE EC50, from average LOG EC50, N 5): 68.9 µM
- EC50 (Drosophila OR85b; EC50 (fitted parameter), individual biological replicates): 50.9 µM and 47.5 µM and 41.7 µM and 42.2 µM
- EC50 (Drosophila OR85b; EC50, AVERAGE, arithmetic average of 5 replicate EC50): 110 µM
- EC50 (Drosophila OR85b; EC50, FITTED AVERAGE CURVE, fit to the average curve): 72.2 µM
- EC50 (Drosophila OR85b; EC50, OR85b cell line, fitted Hill equation, Hill coefficient constrained to 1, maximal response max 1): 68.9 µM
- activation at 1 µM (Drosophila OR85b; [1]): 4%
- activation at 10 µM (Drosophila OR85b; [1]): 20%
- activation at 100 µM (Drosophila OR85b; [1]): 55%
- activation at 1 µM (Drosophila OR85b; [2]): 0%
- activation at 10 µM (Drosophila OR85b; [2]): 20%
- activation at 100 µM (Drosophila OR85b; [2]): 55%
- Emax (Drosophila OR85b; HEK293, read-out: VUAA1 normalized MAX response): 72%
- EC50 (Drosophila OR85b; LOG EC50 (fitted parameter), individual biological replicates, OR85b D-R sheet): 50.9 µM and 47.5 µM and 41.7 µM and 42.2 µM
- EC50 (Drosophila OR85b; LOG EC50, AVERAGE, average of 5 biological replicates): 68.9 µM
- Average response (Drosophila OR85b; cc. 1 µM): 0.037
- Average response (Drosophila OR85b; cc. 10 µM): 0.20
- Average response (Drosophila OR85b; cc. 100 µM): 0.55
- response, AVERAGE (Drosophila OR85b; [3]): 0
- response, biological replicates (Drosophila OR85b; [3]): 0
- response, AVERAGE (Drosophila OR85b; [4]): 0
- response, biological replicates (Drosophila OR85b; [4]): 0
- response, AVERAGE (Drosophila OR85b; [5]): 0.02418
- response, biological replicates (Drosophila OR85b; [5]): 0 (3×) and 0.06045 (2×)
- response, AVERAGE (Drosophila OR85b; [6]): 0
- response, biological replicates (Drosophila OR85b; [6]): 0
- response, AVERAGE (Drosophila OR85b; [7]): 0
- response, biological replicates (Drosophila OR85b; [7]): 0
- response, AVERAGE (Drosophila OR85b; [8]): 0.05175
- response, biological replicates (Drosophila OR85b; [8]): 0 (2×) and 0.08029 and 0.08922 (2×)
- response, AVERAGE (Drosophila OR85b; [9]): 0.07565
- response, biological replicates (Drosophila OR85b; [9]): 0.1715 and 0 and 0.05971 and 0.07351 (2×)
- response, AVERAGE (Drosophila OR85b; [10]): 0.1574
- response, biological replicates (Drosophila OR85b; [10]): 0.2412 and 0.05753 and 0.1726 and 0.1579 (2×)
- response, AVERAGE (Drosophila OR85b; [11]): 0.2822
- response, biological replicates (Drosophila OR85b; [11]): 0.4423 and 0.101 and 0.2153 and 0.3264 (2×)
- response, AVERAGE (Drosophila OR85b; [12]): 0.3295
- response, biological replicates (Drosophila OR85b; [12]): 0.5597 and 0.152 and 0.2767
- response, AVERAGE (Drosophila OR85b; [13]): 0.3923
- response, biological replicates (Drosophila OR85b; [13]): 0.6627 and 0.1546 and 0.3278 and 0.4082 (2×)
- response, AVERAGE (Drosophila OR85b; [14]): 0.3199
- response, biological replicates (Drosophila OR85b; [14]): 0.2321 and 0.3319 and 0.3577 (2×)
- AVERAGE MAX (Drosophila OR85b; average of 5 biological replicates): 0.7284
- DF norm AVERAGE OR85b (Drosophila OR85b; concentration 1, normalized fluorescence change, values below 0.05 threshold given as 0): 0
- DF norm AVERAGE OR85b (Drosophila OR85b; concentration 10, normalized fluorescence change, values below 0.05 threshold given as 0): 0.1962
- DF norm AVERAGE OR85b (Drosophila OR85b; concentration 100, normalized fluorescence change, values below 0.05 threshold given as 0): 0.5508
- MAX, fitted average curve (Drosophila OR85b; fit to the average curve): 0.6682
- MAX (fitted parameter) (Drosophila OR85b; individual biological replicates): 1 (2×) and 0.5003 and 0.5695 and 0.5722
- DF norm AVERAGE OR10a (Drosophila OR10a): 0
- activation at 1 µM (Drosophila OR10a; HEK293, 1 μM VOC, 50 μM VUAA1 = 1, responses not exceeding 0.05 considered 0, read-out: OR10a Average response (VUAA1-normalized)): 3%
- activation at 10 µM (Drosophila OR10a; HEK293, 10 μM VOC, 50 μM VUAA1 = 1, responses not exceeding 0.05 considered 0, read-out: OR10a Average response (VUAA1-normalized)): 4%
- activation at 100 µM (Drosophila OR10a; HEK293, 100 μM VOC, 50 μM VUAA1 = 1, responses not exceeding 0.05 considered 0, read-out: OR10a Average response (VUAA1-normalized)): 4%
- activation at 1 µM (Drosophila OR10a; HEK293, read-out: OR10a response (VUAA1-normalized response), VOC concentration 1 μM): 0%
- activation at 10 µM (Drosophila OR10a; HEK293, read-out: OR10a response (VUAA1-normalized response), VOC concentration 10 μM): 0%
- activation at 100 µM (Drosophila OR10a; HEK293, read-out: OR10a response (VUAA1-normalized response), VOC concentration 100 μM): 0%

Compound: CC/C=C\CCO [Z-3-hexenol]
- OR85b response (VUAA1-normalized) at 1 μM (Drosophila OR85b): 0.0533
- OR85b response (VUAA1-normalized) at 10 μM (Drosophila OR85b): 0.00
- OR85b response (VUAA1-normalized) at 100 μM (Drosophila OR85b): 0.00
- OR10a response (VUAA1-normalized) at 1 μM (Drosophila OR10a): 0.17
- OR10a response (VUAA1-normalized) at 10 μM (Drosophila OR10a): 0.19
- OR10a response (VUAA1-normalized) at 100 μM (Drosophila OR10a): 0.10

Compound: Cc1ccc(C(C)C)cc1 [p-cymene]
- OR85b response (VUAA1-normalized) at 1 μM (Drosophila OR85b): 0.00
- OR85b response (VUAA1-normalized) at 10 μM (Drosophila OR85b): 0.12
- OR85b response (VUAA1-normalized) at 100 μM (Drosophila OR85b): 0.09
- Average response (Drosophila OR85b; cc. 1 µM): 0.00
- Average response (Drosophila OR85b; cc. 10 µM): 0.12
- Average response (Drosophila OR85b; cc. 100 µM): 0.09
- DF norm AVERAGE OR85b (Drosophila OR85b; [15]): 0
- DF norm AVERAGE OR85b (Drosophila OR85b; [16]): 0.1172
- DF norm AVERAGE OR85b (Drosophila OR85b; [17]): 0.09049
- activation at 1 µM (Drosophila OR10a; HEK293, read-out: OR10a Average response (VUAA1-normalized), 1 μM VOC, 50 μM VUAA1 = 1, responses not exceeding 0.05 considered 0): 0%
- activation at 10 µM (Drosophila OR10a; HEK293, read-out: OR10a Average response (VUAA1-normalized), 10 μM VOC, 50 μM VUAA1 = 1, responses not exceeding 0.05 considered 0): 0%
- activation at 100 µM (Drosophila OR10a; HEK293, read-out: OR10a Average response (VUAA1-normalized), 100 μM VOC, 50 μM VUAA1 = 1, responses not exceeding 0.05 considered 0): 0%
- OR10a response (VUAA1-normalized) at 1 μM (Drosophila OR10a): 0.00
- OR10a response (VUAA1-normalized) at 10 μM (Drosophila OR10a): 0.00
- OR10a response (VUAA1-normalized) at 100 μM (Drosophila OR10a): 0.00
- DF norm AVERAGE OR10a (Drosophila OR10a; [15]): 0
- DF norm AVERAGE OR10a (Drosophila OR10a; [16]): 0
- DF norm AVERAGE OR10a (Drosophila OR10a; [17]): 0
